From patent US6803387B1, “Treatment of neuropathic pain or fibromyalgia” (Abbott GmbH & Co. KG, priority 1999, dated 2004)

System: neuropathic pain
Test: oral administration to a patient with neuropathic pain
Type: in vivo, human
Conditions: one patient, 10 mg orally once daily for weight loss; pain returned on discontinuation, disappeared again on re-administration
Procedure: Sibutramine 10 mg was administered orally once daily for weight loss to a patient who also had neuropathic pain. The neuropathic pain disappeared. Therapy with sibutramine was discontinued and the neuropathic pain returned. When sibutramine was then administered again, the neuropathic pain disappeared.

For `CC(C)CC(N(C)C)C1(c2ccc(Cl)cc2)CCC1` (stereo not shown) [Sibutramine, N,N-dimethyl-1-[1-(4-chlorophenyl)cyclobutyl]-3-methylbutylamine], the neuropathic pain was “disappeared”.
